US7368100B2, “Backbone-substituted bifunctional DOTA ligands, complexes and compositions thereof, and methods of using same” (The United States of America, represented by the Secretary, …, priority 2002, dated 2008)

Assays:
[1] = system: HER2 positive cells (N87); assay: Live-cell radioimmunoassay (immunoreactivity) of radiolabeled HERCEPTIN preparations; format: binding, human; conditions: for HER2 + (percent binding): N87 cells, overnight 4° C., average of the serial dilutions; for HER2 − (percent binding): column HER2 −, not explained, text describes incubation with excess (10 μg) unlabeled HERCEPTIN
Protocol: The human colon carcinoma (LS-174T) cell line was grown in supplemented Eagle's minimum essential medium as previously described (see Brechbiel et al., Inorg Chem., 25, 2772 (1986); and Lagunas-Solar et al., Appl. Radiat. Isot., 38, 129-137 (1987)). The human gastric carcinoma cell line (N87) was kindly provided by Dr. Raya Mandler, Metabolism Branch, NCI. The N87 cell line (Jurcic et al., Advances in Pharmacology, Vol. 33, (J. T. August, M. W. Anders, F. Murad, J. T. Coyle Eds.) pp 287-314, Academic Press, Inc., New York, (1995)), which expresses high levels of HER2, was maintained in RPMI 1640 (Quality Biologicals, Gaithersburg, Md.) medium, supplemented with 10% fetal bovine serum (FBS) (Gemini Bio-Products, Woodland, Calif.) and 0.01 mM non-essential amino acids (Quality Biologicals, Gaithersburg, Md.).
The immunoreactivity of the RIC was assessed in a live-cell radioimmunoassay (RIA) as detailed elsewhere (Garmestani et al., Nuci. Med. Biol., 29, 599-606 (2002)). HER2 positive cells (N87) were harvested, pelleted at 1,000×g (Allegra 6KR; Beckman Coulter, Palo Alto, Calif.) and resuspended in PBS (pH 7.2) containing 1% BSA and were added to 12×75 […] polypropylene tubes (1×10^6 cells in 100 μL). Serial dilutions of the radiolabeled HERCEPTIN preparations (about 200,000 cpm -12,500 cpm in 50 μL) were then added in duplicate and gently shaken. Following an overnight incubation at 4° C., the cells were washed once with 4 mL of 1% BSA in PBS and pelleted at 1,000×g for 5 min, and the supernatant was decanted. The pelleted cells were then counted in a γ-scintillation counter (Packard), and the percent binding was calculated for each dilution. The values presented in Table 1 are an average of the serial dilutions. To confirm the specific reactivity of the RIC, cells were incubated with about 200,000 cpm of the RIC along with an excess (10 μg) of unlabeled HERCEPTIN.

[2] = system: human colon carcinoma (LS-174T) xenografts; conditions: mouse, in vivo
Protocol: The radioimmunoconjugates (RICs) were compared in vivo using athymic mice bearing human colon adenocarcinoma xenografts. Female athymic mice (nu/nu), obtained from Charles River Laboratories (Wilmington, Mass.) at 4-6 weeks of age, were injected subcutaneously on the flank with 2×10^6 LS-174T cells in 0.2 mL of RPMI-1640. At approximately 10-14 days, when the tumors measured between 0.4-0.6 cm in diameter, the mice received the ^177Lu-labeled HERCEPTIN. The mice were injected with each RIC (about 5 μCi of each) intravenously (i.v.) via the tail vein. Mice (n=5) were sacrificed by exsanguination at 24, 48, 72, 96 and 168 h.
Blood, tumor and the major organs were collected and wet-weighed, and the radioactivity was counted in a γ-counter (Minaxi-γ, Packard, Downers Grove, Ill.). The percent injected dose per gram (% ID/g) was determined for each tissue as well as the radiolocalization indices (% ID/g in tumor divided by the % ID/g in the normal tissue). The mean and average deviation for each tissue was also calculated.
Following injection of the radioimmunoconjugates (n=5), blood samples were collected at various time points via the tail vein in heparinized capillary tubes (10 μL). The blood was transferred to a tube, and the radioactivity was measured in a γ-counter. The percent injected dose per mL of blood was calculated for each of the samples.
If the radioactivity in the tissues is due to specific accumulation, then the tissue-to-blood ratio would increase as a function of time. If the radioactivity in the tissues is a result of that radioactivity present in the plasma compartment, then the tissue-to-blood ratio would remain constant with time.

leukemia cell line = conditions: directed against a leukemia cell line; Nikula et al. 1999; cited from earlier work

1B4M-DOTA (7)
HER2 + (percent binding) [1]: 47.2% | HER2 − (percent binding) [1]: 6.7% | liver % ID/g, comparison among RIC [2]: lowest liver % ID/g values throughout the entire study period | spleen-to-blood ratios [2]: less than 1

Bismuth-labeled HuM195
cell killing ability (leukemia cell line): specific and potent cell killing ability

CHX-DOTA (14)
HER2 + (percent binding) [1]: 45.8% | HER2 − (percent binding) [1]: 4.3% | femur-to-blood ratios, course over time [2]: higher overall than the other RIC | spleen-to-blood ratios [2]: less than 1
